Test results: US20220142169A1, “INHIBITING INSECTICIDE RESISTANCE AND MAKING SUSCEPTIBLE INSECTS HYPER-SUSCEPTIBLE TO PESTICIDES” (priority 2019, published 2022)

Columns and labels:
[1] = system: GSK3β-PO; conditions: listed beside gene GSK3β-PO; cited from earlier work
[2] = system: Drosophila melanogaster DDT-resistant 91-R strain; test: DDT mortality bioassay (glass vial, 24 h) after two days of inhibitor feeding; format: in vivo; conditions: for reduction of level of DDT resistance: optimal rearing condition; for decrease of DDT resistance: sub-optimal rearing condition; for LD50: 24 h; for Resistance Ratio / ratio of LD50 optimal / sub-optimal rearing conditions: DDT; for ratio of LD50 optimal / sub-optimal rearing conditions: no inhibitor
Excerpt: (§1) Flies of 1-2 day old (females and males) were introduced into a plastic vial (28 mm×95 mm height) and fed with inhibitors mixed in 5% sucrose solution. […] After fed with inhibitor solutions for two days, 20 females or males from either the 91-R or 91-C strains were used in all DDT bioassays. To explore the effect of inhibitors, fruit flies under two different rearing conditions: optimal rearing condition and sub-optimal rearing condition were used in our study. Under optimal rearing condition, 100 pairs of flies were maintained in bottles (containing 50 ml standard medium) and allowed for laying eggs for four days. All adults were then removed to make sure the suitable density of larva. Differently, adults were not removed until emerging of next generation under sub-optimal rearing condition. Simply, optimal rearing condition provided enough food for flies, but sub-optimal rearing condition faced certain food pressure.
(§2) Briefly, various concentrations of DDT dissolved in acetone were transferred into 20 ml transparent glass vials and each rolled on its side in a fume hood till the acetone evaporated. […] Vials were capped with cotton plugs moistened with a 5% sucrose solution in distilled water. The number of dead flies were recorded after 24 hours.
(§3) For RT-qPCR, statistical analysis was performed using Student's t-test to compare the results between 91-C and 91-R. For glycogen assay and body weight, One-way ANOVA was used, and means comparisons were made by using Student's t test (p<0.05) by using SPSS software (Version 19.0; SPSS Inc., USA). The median lifespan under fed or starvation conditions were calculated using the Probit function in SPSS (Version 19.0; SPSS Inc, USA). For mortality bioassay, Probit analysis was conducted by using SPSS software (Version 19.0; SPSS Inc, USA).

[3] = system: Drosophila melanogaster DDT-susceptible 91-C strain; test: as above; format: in vivo; conditions: for reduction of level of DDT resistance: optimal rearing condition; for decrease of DDT resistance: sub-optimal rearing condition; for LD50: 24 h
Excerpt: as §1, §2, §3

[4] = system: Drosophila Canton-S strain; test: Cypermethrin mortality bioassay (glass vial, 24 h) after inhibitor feeding; format: in vivo, Drosophila melanogaster; conditions: for LD50: 24 h
Description: (§4) Adult flies were placed in bottles with instant drosophila blue diet (Formula 2-24®, carolina.com) made with inhibitor solutions for two days.
(§5) 200 μl of each concentration of solution as well as 200 μl acetone were transferred into 20 ml transparent glass vials and rolled on its side in a fume hood till the acetone completely evaporated. 20 flies of 91C, 91R and Canton-S stains were placed into vials for either female or male. Vials were capped with cotton plugs moistened with a 5% sucrose solution in distilled water. The number of dead flies were recorded after 24 hours. […] For each strain by sex combination, 8 concentrations of dosage were used including 0 control. A total of 8×3×20 flies were used for each of strain by sex combinations. For mortality bioassay, Probit analysis tool in SAS was used (SAS 9.4, SAS Ins, USA).

[5] = system: Drosophila 91-R strain; test: as above; format: in vivo, Drosophila melanogaster; conditions: for LD50: 24 h
Description: as §4, §5

[6] = system: Drosophila 91-C strain; test: as above; format: in vivo, Drosophila melanogaster; conditions: for LD50: 24 h
Description: as §4, §5

[7] = DDT LD50, 91-R♀, optimal dietary rearing
[8] = DDT LD50, 91-R♀, sub-optimal dietary rearing
[9] = DDT LD50, 91-R♂, optimal dietary rearing
[10] = DDT LD50, 91-R♂, sub-optimal dietary rearing
[11] = DDT LD50, 91-C♀, optimal dietary rearing, Hys 10 mM, LiCl 20 mM fed 2 days
[12] = DDT LD50, 91-C♂ (so in the source), sub-optimal dietary rearing
[13] = DDT LD50, 91-C♂, optimal dietary rearing

## NC1=N[C@H]2c3c([nH]c(Br)c3Br)C(=O)N3CCC[C@]23N1 [Dibromocantharelline]
[1]
  IC50: 3 µM

## [Cl-].[Li+] [LiCl, lithium chloride]
[2]; 91-R females
  reduction of level of DDT resistance: 1.6 fold
  decrease of DDT resistance: 3.3 fold
[2]; 91-R males
  reduction of level of DDT resistance: 20.5 fold
  decrease of DDT resistance: no significant decreased in resistance levels
[2]; 91-R, both sexes, optimal rearing conditions
  resistance ratio reduction / decrease of DDT resistance: 1.6-20.5 fold
[2]; [7]
  LD50: 83375.00 μg/vial
[2]; [8]
  LD50: 157.63 μg/vial
[2]; [9]
  LD50: 3224.00 μg/vial
[2]; [10]
  LD50: 126.69 μg/vial
[2]; 91-R♀, optimal rearing
  Resistance Ratio: 1.64
[2]; 91-R♀, sub-optimal rearing
  Resistance Ratio: 3.37
[2]; 91-R♂, optimal rearing
  Resistance Ratio: 20.49
[2]; 91-R♂, sub-optimal rearing
  Resistance Ratio: 1.13
[3]; 91-C females
  reduction of level of DDT resistance: 4.2 fold
  decrease of DDT resistance: 2.3 fold
[3]; 91-C males
  reduction of level of DDT resistance: 2.7 fold
  decrease of DDT resistance: 2.3 fold
[3]; DDT LD50, 91-C♀ (so in the source), sub-optimal dietary rearing
  LD50: 0.94 μg/vial
[3]; [11]
  LD50: 12.17 μg/vial
[3]; [12]
  LD50: 2.96 μg/vial
[3]; [13]
  LD50: 7.22 μg/vial
[3]; DDT, 91-C♀ (so in the source), sub-optimal rearing
  Resistance Ratio: 2.26
[3]; DDT, 91-C♂ (so in the source), sub-optimal rearing
  Resistance Ratio: 2.29
[3]; DDT, 91-C♂, optimal rearing
  Resistance Ratio: 2.74
[3]; control LD50 vs inhibitor-fed, DDT, 91-C♀, optimal rearing
  Resistance Ratio: 4.24
[4]; Canton-S ♀
  Synergism Ratio: 0.74
[4]; Canton-S ♀, Hys 10 mM, LiCl 20 mM in diet 2 days
  LD50: 0.78 μg/vial
[4]; Canton-S ♂
  Synergism Ratio: 0.60
  LD50: 0.9 μg/vial
[5]; 91-R♀
  Synergism Ratio: 4.58
  LD50: 0.17 μg/vial
[5]; 91-R♂
  Synergism Ratio: 3.36
  LD50: 0.08 μg/vial
[6]; 91-C♀
  Synergism Ratio: 4.93
  LD50: 0.13 μg/vial
[6]; 91-C♂
  Synergism Ratio: 11.92
  LD50: 0.03 μg/vial
[1]
  IC50: 2000 µM

## NN.O=S(=O)(O)O [Hys, hydrazine sulphate]
[4]; Canton-S ♀
  Synergism Ratio: 3.58
[4]; Canton-S ♂
  Synergism Ratio: 3.78
[5]; 91-R♀
  Synergism Ratio: 3.87
[5]; 91-R♂
  Synergism Ratio: 3.88
[6]; 91-C♀
  Synergism Ratio: 4.39
[6]; 91-C♂
  Synergism Ratio: 5.73

## Clc1ccc(C(c2ccc(Cl)cc2)C(Cl)(Cl)Cl)cc1 [DDT]
[2]; [7]
  LD50: 136883.00 μg/vial
[2]; [8]
  LD50: 523.34 μg/vial
[2]; [9]
  LD50: 66073.00 μg/vial
[2]; [10]
  LD50: 143.70 μg/vial
[2]; 91-R females
  ratio of LD50 optimal / sub-optimal rearing conditions: 261.56
[2]; 91-R males
  ratio of LD50 optimal / sub-optimal rearing conditions: 459.80
[3]; [11]
  LD50: 51.59 μg/vial
[3]; [12]
  LD50: 6.77 μg/vial
[3]; [13]
  LD50: 19.81 μg/vial
[3]; DDT, 91-C females, no inhibitor
  ratio of LD50 optimal / sub-optimal rearing condition: 7.62

## NC1=NC(=O)/C(=C2\CCNC(=O)c3[nH]c(Br)cc32)N1 [Hymenialdesine]
[1]
  IC50: 0.01 µM
